Experiment: Human HepG2 cell viability assay in 384 well format
Type: toxicity, cell-based
Design: dose 125 nL, time 70.5 hour; cytotoxicity at 70.5 h: concentration not given beside the values
Settings: HepG2 cells, read-out: Inhibition

| Structure (SMILES) | cytotoxicity at 70.5 h [%] |
| --- | --- |
| Cc1noc(C(C)N2CCN(CCn3ccccc3=O)CC2)n1 (stereo not drawn) | -1.66 |
| Cc1noc(CNC(=O)NCCc2ccc(Cl)cc2)n1 | -3.31 |
| Cc1noc(CNC(=O)NCCOc2ccc(Cl)cc2)n1 | -3.2 |
| CC(C)CN(CC(C)C)Cn1ncc2cn(-c3ccccc3)nc2c1=O | -2.25 |
| COc1c(C2CCCN2c2ncnc3c2CCC3)c(C)nn1C (stereo not drawn) | -2.31 |
| COc1ccc(C(NC(=O)c2cccc[n+]2[O-])C2CC2)cc1 (stereo not drawn) | -3.04 |
| CN(Cc1cc2ccccc2o1)S(C)(=O)=O | -1.88 |
| CCc1noc(CN(C)C2CCN(c3sccc3C#N)C2=O)n1 (stereo not drawn) | -2.79 |
| CN(Cc1ncnn1C)C1CCN(c2sccc2C#N)C1=O (stereo not drawn) | -1.7 |
| O=C(NC1(C(=O)O)CCCC1)C1Cc2cc(F)ccc2O1 (stereo not drawn) | 0.608 |
| CCCC(C)CS(=O)(=O)NCCc1csc(N2CCCC2)n1 (stereo not drawn) | -2.73 |
| c1csc(-c2noc(C3CCCOC3)n2)c1 (stereo not drawn) | -2.62 |
| Cc1nn(C)c(Cl)c1C1CCCN1c1ncnc2c1CCC2 (stereo not drawn) | 18 |
| CC(C)c1cc(C(=O)N2CCc3ccccc3C2C(=O)O)n(C)n1 (stereo not drawn) | -5.14 |
| CC(C)c1nc(C(=O)N2CCc3ccccc3C2C(=O)O)cs1 (stereo not drawn) | -2.12 |
| COC(=O)C1CCCCN1C(=O)c1ccccc1F (stereo not drawn) | -2.94 |
| CC(C)CN(CC(=O)O)C(=O)c1ccc(F)cc1 | 4.28 |
| Cc1cc(N2CCC(NS(C)(=O)=O)CC2)nc(C(C)C)n1 | -4.49 |
| Cc1ccc(C(=O)Nc2ccccc2N2CCCC2)n1C | 12 |
| CN(Cc1ccccc1F)C(=O)COC(=O)c1cc(Cl)c[nH]1 | 10.9 |
| CN(Cc1ccco1)C(=O)CN1C(=O)c2cc(Cl)c(Cl)cc2C1=O | -16.6 |
| O=C(Nc1cc(C(F)(F)F)c[nH]c1=O)C1CCCO1 (stereo not drawn) | -7.79 |
| CC(=O)N1CCC(C(=O)NCCc2c[nH]c3cc(C)ccc23)CC1 | 16.1 |
| CC1COCCN1C(=O)COc1cccc(Oc2ccccn2)c1 (stereo not drawn) | -9.57 |

| Structure (SMILES) | cytotoxicity at 70.5 h [%] |
| --- | --- |
| NC(=O)CCN(CC(=O)NCc1ccccn1)c1ccc(F)cc1 | -9.69 |
| c1cc(CNCc2cccc3c2OCCO3)cc(Cn2cncn2)c1 | -10.5 |
| CSCC(=O)N1CCOC(c2nc(C(C)(C)C)n[nH]2)C1 (stereo not drawn) | -0.6 |
| N#CCCCS(=O)(=O)NC1(c2ccc(F)cc2)CC1 | -8.06 |
| CCc1nnsc1C(=O)N1CCOC(c2nc(C(C)C)n[nH]2)C1 (stereo not drawn) | -2.32 |
| CCc1ocnc1C(=O)N1CCOC(c2nc(C(C)C)n[nH]2)C1 (stereo not drawn) | -10.4 |
| O=C(Nc1ccc(F)cc1-c1nc(C2CC2)no1)N1CC[C@@H](O)C1 | -6.37 |
| COCc1noc(Cn2c(C3CC3)nc3ccccc32)n1 | 21.1 |
| CNC(=O)c1cccc(CN2CCN(c3ccncc3)CC2)c1 | 0.282 |
| CNS(=O)(=O)C1CCN(c2cc(C(C)C)nc(C(C)C)n2)C1 (stereo not drawn) | -6.44 |
| CC1CN(C)CCN1C(=O)COc1cccc(Oc2ccccn2)c1 (stereo not drawn) | 18.2 |
| c1ncn(Cc2ccc(CNCc3ccc4c(c3)OCCO4)cc2)n1 | -13.3 |
| CCN1CCCCC1C(=O)N1CCC(OC2CCCC2)CC1 (stereo not drawn) | 6.41 |
| Cc1ccc(CN(C)C(=O)CNC(=O)N2CCc3ccccc3C2)o1 | 17.9 |
| Cc1cccc(C(=O)N(CC(=O)O)CC(C)C)c1 | 11.7 |
| CCNC(=O)c1ccc(NC2CCOC3(CCCC3)C2)nn1 (stereo not drawn) | 17 |
| CN(C1CCCCC1)S(=O)(=O)NCC1Cc2ccccc2O1 (stereo not drawn) | -1.4 |
| CCCc1noc(C[S+]([O-])CC(=O)NCc2ccccc2)n1 (stereo not drawn) | 15.8 |
| Cc1c(NC(=O)CN(C)S(C)(=O)=O)cccc1OC1CCCC1 | -4 |
| CCn1cc(S(=O)(=O)NCc2ccnc(-n3ccnc3)c2)cn1 | -6.31 |
| O=S(=O)(NCc1ccnc(-n2ccnc2)c1)c1cncc(F)c1 | -1.94 |
| Cc1cnn(Cc2cccc(OCC(N)=O)c2)c1 | -1.49 |
| Cc1nc(CN2CCc3ccc(S(N)(=O)=O)cc32)oc1C | 0.0206 |
| Cc1cnc(C(NC(=O)NCc2nc(C3CC3)no2)C2CC2)s1 (stereo not drawn) | -1.45 |

| Structure (SMILES) | cytotoxicity at 70.5 h [%] |
| --- | --- |
| CS(=O)(=O)NCC1Cc2ccccc2O1 (stereo not drawn) | -0.512 |
| OC(c1cnn(-c2ccccc2)c1)C(F)(F)F (stereo not drawn) | -1.66 |
| CC(C)c1nnc(CN2CCCc3ccc(S(N)(=O)=O)cc32)o1 | -0.377 |
| O=C(NCCN1CCOCC1)c1cc(-c2ccc(Cl)s2)[nH]n1 | -1.44 |
| Cc1noc(C)c1CC(=O)NCCN1CCN(S(C)(=O)=O)CC1 | 0.0227 |
| Cc1noc(C)c1C(=O)NCCN1CCOCC1 | 1.59 |
| O=C(CS(=O)(=O)c1ncccc1Cl)NC1CCCc2ccccc21 (stereo not drawn) | 12 |
| N#Cc1cnc(NC2CCN(C(=O)C3CCCCC3)CC2)c(Cl)c1 | -0.508 |
| COC(=O)c1cc(NCC(=O)NC(N)=O)cc(C(F)(F)F)c1 | 0.625 |
| CC(C)(CNC(=O)Nc1cccc(-c2nccs2)c1)C(N)=O | -0.236 |
| CC(C)(CNC(=O)Nc1cccc(-c2cccs2)c1)C(N)=O | 0.351 |
| Cc1cccc(CNC(Cn2cncn2)c2ccccc2)c1C (stereo not drawn) | 1.21 |
| CC(C)CC(NC(=O)c1cccc(F)c1F)C(=O)Nc1cc[nH]n1 (stereo not drawn) | -1.3 |
| N#Cc1c(Cl)nsc1NCc1ccc(N2CCSCC2)cc1 | 12.7 |
| O=C(CNC(=O)Nc1cccc(-c2nccs2)c1)NCCO | -2.39 |
| Cc1cccc(N2CCN(CCC(=O)NCc3nnc[nH]3)CC2)c1 | -1.67 |
| O=C(CS(=O)(=O)c1cccc[n+]1[O-])NC1CCCc2ccccc21 (stereo not drawn) | 1.9 |
| Cc1cn2c(CN(C)C(=O)c3cnc(N)c(Cl)c3)c(C)nc2s1 | 11.9 |
| Cc1nnc(NCc2ccc(N3CCC(CO)CC3)cc2)c(C#N)c1C | -1.7 |
| N#Cc1cccc(CN(CC(=O)N2CCCC2)CC2CCCO2)c1 (stereo not drawn) | 0.804 |
| COc1ccc(CNC(Cn2cncn2)c2ccccc2)cc1C (stereo not drawn) | -4.57 |
| O=C(CN(Cc1cccc(F)c1)CC1CCCO1)N1CCCC1 (stereo not drawn) | 13.7 |
| Cc1cc(CN(C)CCN(C)c2ccccc2)no1 | 0.0635 |
| CCSCCC(C)N(C)C(=O)c1ccc(C)o1 (stereo not drawn) | -1.62 |

| Structure (SMILES) | cytotoxicity at 70.5 h [%] |
| --- | --- |
| N#Cc1csc(CN(CC(=O)N2CCCC2)CC2CCCO2)c1 (stereo not drawn) | 0.764 |
| CN(CCCNC(=O)Nc1ccc(C#N)cc1)CC(F)(F)F | 40.9 |
| CN(CCCNC(=O)c1ccc(C#N)cc1)CC(F)(F)F | 5.13 |
| Cc1ccc(C)c(Oc2ccc(CNC(=O)C3CCS(=O)(=O)C3)cn2)c1 (stereo not drawn) | -10.1 |
| COC(=O)c1ccc(OCC(=O)N(C)Cc2ccsc2)c(OC)c1 | -5.54 |
| COc1ccc(CC(=O)N2CCC(c3nncn3C)CC2)cc1F | -10.5 |
| Cc1cc(C)c(CNC(=O)N2CCC(N3CCCCC3)CC2)c(=O)[nH]1 | -7.65 |
| Cc1nc(COc2ccc(OCC(N)=O)cc2)oc1C | -8.19 |
| O=C1CN(C(=O)c2cc(Cl)ccc2F)c2ccncc2N1 | -8.1 |
| COc1ccc(Br)cc1CC(=O)Nc1cc(C)n[nH]1 | 25.5 |
| Cc1nc(COc2ccc(OC(C)C(N)=O)cc2)oc1C (stereo not drawn) | -0.152 |
| Cc1cc(C)c(CNC(=O)N2CCC(N3CCNC3=O)CC2)c(C)c1 | -7.95 |
| Cc1cc(C(=O)N2CC(=O)Nc3cnccc32)c(Cl)cc1F | -1.87 |
| CC(C)c1nsc(N2CCOC3(CCCC3)C2)n1 | -2.46 |
| O=C(c1cnc(NCCC2CCCO2)c(Cl)c1)N1CCOCC1 (stereo not drawn) | -7.98 |
| COCCN1CCC(NC(=O)NCC2(c3cccc(F)c3)CC2)C1 (stereo not drawn) | -8.45 |
| CC1CN(C(=O)NCc2cccc(C#N)c2)CCN1CC(F)(F)F (stereo not drawn) | -7.28 |
| Cc1cc(C2CCCN(Cc3ncc(C(C)C)o3)C2)n[nH]1 (stereo not drawn) | -6.54 |
| CCc1nc(C(=O)N2CCOCC2CC(=O)c2ccccc2)c[nH]1 (stereo not drawn) | -8.59 |
| O=C(CC1COCCN1C(=O)c1cscn1)c1ccccc1 (stereo not drawn) | -11.8 |
| Cc1nc(-c2cccc(C#N)c2)nn1CC1(O)CCCCC1 | 3.88 |
| N#CCCCOc1cccc(CN2CCCC2c2ccc[nH]2)c1 (stereo not drawn) | 1.38 |
| COCc1cccc(C(=O)N2CCCC2)c1 | 4.08 |
| Cc1cc(Br)ccc1NCC(=O)Nc1cc(C(C)(C)C)no1 | -4.88 |

| Structure (SMILES) | cytotoxicity at 70.5 h [%] |
| --- | --- |
| Cc1cc(C(=O)NC2CCN(c3ncccc3C#N)CC2)no1 | -2.85 |
| Cc1ncsc1C(=O)NC1CCN(c2ncccc2C#N)CC1 | -6.11 |
| CCc1ccc(C(C)NC(=O)CCc2nc(-c3nnc[nH]3)no2)cc1 (stereo not drawn) | -4.48 |
| CCCC(=O)NC1CCCN(C(=O)c2ccc(C)nc2)C1 (stereo not drawn) | 14.6 |
| CCc1noc(C)c1C(=O)NCc1cc[nH]n1 | 0.164 |
| Cn1c(C2CCCCN2C(=O)CN2CCCC2=O)nc2ccccc21 (stereo not drawn) | 21.3 |
| CCC(=O)NC1CCCN(C(=O)c2ccc(OCC3CC3)nc2)C1 (stereo not drawn) | 15.5 |
| CCc1ccc(C2CCCCCN2C(=O)CNC(=O)C2CC2)o1 (stereo not drawn) | -1.46 |
| CCNC(=O)NCc1ccc(CN2CCCC(C)C2)cc1 (stereo not drawn) | -0.573 |
| CCc1ccc(C2CCCCCN2C(=O)CNC(=O)NC2CC2)o1 (stereo not drawn) | -1.33 |
| Cc1cn2c(n1)CCC(NS(=O)(=O)c1ccc(C)s1)C2 (stereo not drawn) | -1.48 |
| N#Cc1cccc(-c2ncnn2CC2(O)CCCCC2)c1 | -3.16 |
| CC(C)(C)[S+]([O-])CCNC(=O)c1csc(NC2CC2)n1 (stereo not drawn) | 12.6 |
| Cc1cc(NC(=O)N2CCOCC2)nn1-c1ccccc1Cl | -5.4 |
| c1ncc2c(n1)CN(Cc1cn3ccsc3n1)CC2 | -4.44 |
| CC(NC1(CNC(=O)NC2CC2)CCOCC1)c1ccccc1 (stereo not drawn) | 14.3 |
| COCCOCC(=O)Nc1ccc(F)cc1C | 11.3 |
| Cc1ccc(C(=O)N(C)Cc2cc(Br)cs2)cn1 | -8.7 |
| CC(C)C(=O)NCCC(=O)N1CCN(c2ccccn2)CC1 | -4.63 |
| Cc1nc(C2(NCC(=O)NC(=O)NCC(F)(F)F)CCCCC2)no1 | 13.9 |
| Cc1ncsc1C(=O)N1CCN(Cc2cscn2)CC1 | -1.83 |
| O=C(NCCCNC(=O)c1ccc(F)cc1F)c1cccc(O)c1 | -1.34 |
